Experimental findings from US9562021B2, “Histone deacetylase inhibitors and compositions and methods of use thereof” (CHDI Foundation, Inc., priority 2013, dated 2017) are described below.

Read-outs that look alike come from different tables or passages of the source.

Series [1] has as its target T1, HDAC4 (Homo sapiens, UniProt P56524). Nature of the series: HDAC4 (bioch) IC50. In kind it is biochemical. To be noted: Table 3; read-out: IC50 μM (bioch).
The nature of series [2]: Hepatic microsomal stability, mouse. To be noted: mouse liver microsomes. In kind it is in vitro ADME. (In general: Liver microsomes are vesicles of endoplasmic reticulum, rich in cytochrome P450 enzymes.)
The nature of series [3]: PK study (iv and po 10 mg/kg), plasma, brain and muscle. In kind it is in vivo. Conditions: for clearance: read-out: Clearance (CLp) (converted); for Vd: read-out: Volume of Distribution at Steady State (Vdss).
The target of series [4] is T1, HDAC4. Nature of the series: HDAC4 (cell) IC50. In kind it is cell-based. Conditions: Table 3.
Series [5] is described as follows: MDCK apparent permeability (Papp A>B). In kind it is in vitro ADME. To be noted: dog, pH 7.4.
Series [6] concerns Boc-Lys(Ac). Put plainly: Boc-Lys(Ac) IC50. In kind it is cell-based.
For series [7], the system named is cellular histone deacetylase activity in Jurkat E6-1 cells. Put plainly: Inhibition of cellular HDAC activity, Boc-Lys(Tfa)-AMC substrate. In kind it is cell-based. To be noted: Homo sapiens, Class IIa selective substrate. The source says: The potency of exemplifying compounds described herein is quantified by measuring the cellular histone deacetylase enzymatic activity using the Class IIa selective substrate, Boc-Lys(Tfa)-AMC. After penetration in Jurkat E6-1 cells, the substrate is deacetylated to Boc-Lys-AMC. After cell lysis and cleavage by trypsin, the fluorophore AMC is released from the deacetylated substrate only. The fluoresence of the sample is directly related to the histone deacetylase activity in the sample.
Jurkat E6.1 Cell Culture and Plating. Jurkat E6.1 cells are cultured according to standard cell culture protocols in Jurkat E6.1 Growth Media (RPMI without phenol red, 10% FBS, 10 mM HEPES, and 1 mM Sodium Pyruvate). Jurkat E6.1 cells are counted using a Coulter Counter and resuspended in Jurkat E6.1 growth media at a concentration of 75,000 cells/35 μL. 35 μL or 75,000 cells is seeded into Greiner microtitre assay plates. The plates are then incubated at 37° C. and 5% CO2 while other assay components are being prepared.
Serially Dilute HDAC Inhibitor Compounds. […]
Assay. […] Finally the top read fluorescence (Excitation: 355 nm, Emission: 460 nm) is measured using PerkinElmer EnVision.

The mark [8] stands for this setting: 5 mg eq./Kg, IV PK, brain, read-out: Brain-plasma.
[9] abbreviates: 5 mg eq./Kg, IV PK, muscle section, read-out: Brain-plasma.
[10] abbreviates: 10 mg/Kg, Oral PK, brain, read-out: Brain-plasma.
[11] abbreviates: 10 mg/Kg, Oral PK, muscle, read-out: Muscle-plasma.

T1 sequence (P56524 whole entry): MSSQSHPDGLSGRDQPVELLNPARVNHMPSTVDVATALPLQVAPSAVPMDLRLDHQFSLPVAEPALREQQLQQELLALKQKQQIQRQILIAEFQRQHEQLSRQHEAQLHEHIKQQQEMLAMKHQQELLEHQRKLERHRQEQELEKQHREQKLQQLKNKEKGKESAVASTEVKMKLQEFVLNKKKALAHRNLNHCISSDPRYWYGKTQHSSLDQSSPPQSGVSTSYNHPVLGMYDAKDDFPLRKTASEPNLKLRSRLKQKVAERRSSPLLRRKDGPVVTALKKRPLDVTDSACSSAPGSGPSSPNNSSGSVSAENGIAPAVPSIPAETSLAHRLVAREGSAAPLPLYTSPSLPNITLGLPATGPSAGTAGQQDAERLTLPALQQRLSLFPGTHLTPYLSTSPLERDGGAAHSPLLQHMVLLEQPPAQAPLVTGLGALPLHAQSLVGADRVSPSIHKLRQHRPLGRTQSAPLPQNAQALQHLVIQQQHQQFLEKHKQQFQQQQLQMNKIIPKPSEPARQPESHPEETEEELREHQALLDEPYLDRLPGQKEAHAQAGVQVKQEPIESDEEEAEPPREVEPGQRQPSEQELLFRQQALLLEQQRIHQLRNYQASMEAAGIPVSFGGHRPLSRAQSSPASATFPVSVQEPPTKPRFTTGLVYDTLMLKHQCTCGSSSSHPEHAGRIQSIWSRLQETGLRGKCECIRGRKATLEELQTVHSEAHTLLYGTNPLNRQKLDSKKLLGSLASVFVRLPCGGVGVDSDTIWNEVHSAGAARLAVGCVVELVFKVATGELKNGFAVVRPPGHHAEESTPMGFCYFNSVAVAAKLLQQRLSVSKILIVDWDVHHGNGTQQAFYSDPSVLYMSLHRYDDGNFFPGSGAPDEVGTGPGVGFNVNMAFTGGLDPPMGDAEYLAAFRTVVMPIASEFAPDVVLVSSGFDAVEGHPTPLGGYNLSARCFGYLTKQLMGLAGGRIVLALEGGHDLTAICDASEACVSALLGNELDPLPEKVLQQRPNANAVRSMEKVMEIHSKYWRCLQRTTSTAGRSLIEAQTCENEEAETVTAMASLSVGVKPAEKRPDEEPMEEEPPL

In the case of `O=C(NO)C(c1ccc(N2CCOCC2)cc1)c1ccccc1F` (stereo not shown), the IC50 turned out to be 0.07 µM in series [1] and 0.64 µM in series [4]. Moreover, in series [2], the MLM was 93 mL/min/kg BW. In addition, the half-life in series [3] (5 mg eq./Kg, IV PK, brain) is 3.3 h; in series [3] (5 mg eq./Kg, IV PK, muscle), 4.8 h; in series [3] (5 mg eq./Kg, IV PK, plasma), 1.8 h. The Kp in series [3] (setting [8]) lay in the range of 0.54 to 8.9; in series [3] (setting [9]), 1.9 to 21; in series [3] (setting [10]), 0.67 to 3.4; in series [3] (setting [11]), 1.5 to 5.2. Moreover, in series [3] (5 mg eq./Kg, IV PK, plasma), the clearance is 123 mL/min/kg. In series [3] (5 mg eq./Kg, IV PK, plasma), the Vd is 3.1 L/kg. In addition, the AUCnorm in series [3] (IV PK, brain) came out at 511 nM·kg·h/mg; in series [3] (IV PK, muscle), 1048 nM·kg·h/mg; in series [3] (IV PK, plasma), 409 nM·kg·h/mg; in series [3] (Oral PK, brain), 151 nM·kg·h/mg; in series [3] (Oral PK, muscle), 260 nM·kg·h/mg; in series [3] (Oral PK, plasma), 109 nM·kg·h/mg. In addition, the Bioavaiability in series [3] (Oral PK, plasma) is 27%. In addition, the “Observed CmaxNorm” value in series [3] (Oral PK, plasma) was found to be 95 nM·kg/mg. Also, the Papp A→B at 1 h, 10 μM in series [5] stood at 23.4 ×10⁻⁶ cm/s.

For `Cc1ncc(-c2ccc(C(C(=O)NO)c3ccccc3F)cc2)cn1` (stereo not shown) [Compound 6, 2-(2-fluorophenyl)-N-hydroxy-2-(4-(2-methylpyrimidin-5-yl)phenyl)acetamide], the IC50 in series [6] was greater than 50000 nM; in series [7], 120 nM.

Turning to `O=C(NO)C(c1ccc(-c2ncc(C(F)(F)F)cn2)cc1)c1ccccc1F` (stereo not shown) [Compound 8, 2-(2-fluorophenyl)-N-hydroxy-2-(4-(5-(trifluoromethyl)pyrimidin-2-yl)phenyl)acetamide], the IC50 in series [6] was greater than 50000 nM; in series [7], 59 nM.

As for `O=C(NO)C(c1ccccc1)c1ccc(-c2cncnc2)cc1` (stereo not shown) [drawing 19], the IC50 was determined as 0.09 µM in series [1] and 0.55 µM in series [4]. In series [2], the MLM was found to be 77 mL/min/kg BW. The half-life was 2.2 h in series [3] (5 mg eq./Kg, IV PK, brain); 4 h in series [3] (5 mg eq./Kg, IV PK, muscle); 1.8 h in series [3] (5 mg eq./Kg, IV PK, plasma); 2.7 h in series [3] (10 mg/Kg, Oral PK, brain); 4 h in series [3] (10 mg/Kg, Oral PK, muscle); 1.9 h in series [3] (10 mg/Kg, Oral PK, plasma). In addition, the Kp in series [3] (setting [8]) fell in the range of 0.12 to 2; in series [3] (setting [9]), 1.1 to 8.9; in series [3] (setting [10]), 0.15 to 1.4; in series [3] (setting [11]), 1 to 8. In addition, the clearance in series [3] (5 mg eq./Kg, IV PK, plasma) is 107 mL/min/kg. Besides, the Vd in series [3] (5 mg eq./Kg, IV PK, plasma) was determined as 2.6 L/kg. Moreover, the AUCnorm was 162 nM·kg·h/mg in series [3] (IV PK, brain); 835 nM·kg·h/mg in series [3] (IV PK, muscle); 516 nM·kg·h/mg in series [3] (IV PK, plasma); 58 nM·kg·h/mg in series [3] (Oral PK, brain); 306 nM·kg·h/mg in series [3] (Oral PK, muscle); 179 nM·kg·h/mg in series [3] (Oral PK, plasma). In addition, in series [3] (Oral PK, plasma), the Bioavaiability is reported as 35%. Further, the “Observed CmaxNorm” value in series [3] (Oral PK, plasma) was found to be 257 nM·kg/mg. The Papp A→B at 1 h, 10 μM in series [5] is 17.5 ×10⁻⁶ cm/s.

One may read the IC50 as the midpoint of a concentration-inhibition curve. In general, half-life refers to the time in which the quantity being followed falls by half. A word on the Papp A→B: it is how fast a substance crosses the layer from the apical side.
